Measurements: patent US20030022821A1, “Bioactive peptides” (priority 1998, published 2003)
Converted amounts (≈) assume the structure as drawn. Like-named read-outs stand apart in the source and are kept apart here. Square brackets hold non-standard residues; d marks the D form. Ends that are not written are not given here. Peptide text beside a SMILES is read from it. * marks the point of attachment. Trp(2-Pmc) = Cc1c(C)c(S(=O)(=O)c2[nH]c3ccccc3c2C[C@H](N)C(=O)O)c(C)c2c1OC(C)(C)CC2; Bip = N[C@@H](Cc1ccc(-c2ccccc2)cc1)C(=O)O; Fmoc = O=C(OCC1c2ccccc2-c2ccccc21)*; Acm = CC(=O)NC*

Tests used:
[1] = test system: Meth A cells (murine sarcoma cell line); assay: Cytotoxicity on Meth A cells, MTT method
Procedure: Peptide solutions (0.1 ml) were added and the plates incubated at 37° C. for 30 minutes, 4 hours or 24 hours. The cytotoxicity was measured using the MTT method (Mosmann et al., J. Immunol. (1986) 136, 2348-2357).
Cells in the growth phase were harvested and washed in fresh medium and injected subcutaneously into the abdominal region of the mice.
The cytotoxic effect of the peptides on different murine and human tumor cells were measured using the MTT method (Mosmann et al., J. Immunol. (1986) 136, 2348-2357). MTT is a soluble tetrazolium salt yielding a yellow solution when prepared in media or salt solutions lacking phenol red. Dissolved MTT is converted to an insoluble purple formazan by cleavage of the tetrazolium ring by dehydrogenase enzymes. This water insoluble formazan can be solubilized using isopropanol or other solvents and the dissolved material is measured spectrophotometrically. The absorbance was measured as a function of concentration of converted dye.
Cells were maintained in […] medium containing 10% FBS, 1% L-glutamine and 0.1% penicillin and streptomycin. Cells to be used in the assay were grown to confluency, trypsinated and split to single cell suspension, counted and centrifuged at 1500 rpm for 10 min. […][…] of cell suspension was transferred to each well on a 96-well microtiter plate. The cells were stimulated by adding […] of various concentrations of peptides diluted with assay medium to each well. The final concentrations of peptide were for example: 5, 10, 20, 40, 60, 80, 100, and 200 mg/ml. […] As a negative control only medium was added to the cells, and as a positive control (100% killing) 1% triton X-100 was added. Following an incubation period of 4 h., 20 ml MTT dissolved in PBS at a concentration of 5 mg/ml was added to each well, and the plate was incubated further for 2 h. 130 ml of the supernatant were then removed and […] acid alcohol (0.04-0.1 N HCl in isopropanol) added to each well to dissolve the dark blue crystals. The plate was placed on a shaker for 1 h and read spectrophotometrically at 590 nm in a microtiterplate reader using the Softmaxâ program.

human red blood cells = assay: Hemolytic assay; format: cell-based
[2] = test system: Escherichia coli ATCC 25922; format: cell-based
Summary of the method: (§1)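 Strains are stored at −70° C, grown to mid-logarithmic phase in 2% Bacto Peptone water, then exposed to peptides in 1% Bacto Peptone water by standard microdilution with 2×10^6 CFU/ml. Each assay runs in triplicate.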

[3] = test system: Staphylococcus aureus ATCC 25923; format: cell-based
Summary of the method: as §1

[4] = read-out: MethA IC 50, Table 7, peptide required to kill 50% of MethA cells

Row | Molecule | EC50 (human red blood cells; red cells of human) [µM] | MIC E. coli ([2]; ATCC 25922) [µg/mL] | MIC S. aureus ([3]; ATCC 25923) [µg/mL] | MethA IC50 ([1]; 4 h) [µg/mL] | % Hemolysis 10 μg/ml (human red blood cells; red cells of human) [%] | % Hemolysis 100 μg/ml (human red blood cells; red cells of human) [%] | other results
1 | CSCC[C@H](NC(=O)[C@H](CCCNC(=N)N)NC(=O)[C@H](Cc1c[nH]c2ccccc12)NC(=O)[C@H](C)NC(=O)[C@H](Cc1c[nH]c2ccccc12)NC(=O)[C@H](CCCNC(=N)N)NC(=O)[C@H](CCCNC(=N)N)NC(=O)[C@H](C)NC(=O)[C@H](CCCCN)NC(=O)[C@H](Cc1ccc(-c2ccccc2)cc1)NC(=O)[C@H](Cc1c[nH]c2ccccc12)NC(=O)[C@H](C)NC(=O)[C@@H]1CCCN1)C(=O)N[C@@H](CCCCN)C(=O)N[C@@H](CCCCN)C(=O)N[C@@H](CC(C)C)C(=O)N[C@@H](C)C(=O)N[C@@H](C)C(=O)O [LFB1431A2, 6, 10, 17Bip4] (H-PAW[Bip]KARRWAWRMKKLAA-OH; N-terminus assumed) | 336 | – | – | – | – | – | EC50 ([1]; 4 h): 23.4 µM
2 | CSCC[C@H](NC(=O)[C@H](CCCNC(=N)N)NC(=O)[C@H](Cc1c[nH]c2ccccc12)NC(=O)[C@H](C)NC(=O)[C@H](Cc1c[nH]c2ccccc12)NC(=O)[C@H](CCCNC(=N)N)NC(=O)[C@H](CCCNC(=N)N)NC(=O)[C@H](C)NC(=O)[C@H](CCCCN)NC(=O)[C@H](Cc1ccccc1)NC(=O)[C@H](Cc1c[nH]c2ccccc12)NC(=O)[C@H](C)NC(=O)[C@@H]1CCCN1)C(=O)N[C@@H](CCCCN)C(=O)N[C@@H](CCCCN)C(=O)N[C@@H](CC(C)C)C(=O)N[C@@H](C)C(=O)N[C@@H](C)C(=O)O [LFB 14-31 A2,6, 10, 17] | > 440 | 20 (≈ 8.8 µM) | 2.5 (≈ 1.1 µM) | – | – | – | EC50 ([1]; 4 h): 165 µM; IC50 ([1]; 4 h): 165 µM; IC50 [1, 4]: 165 µM
3 | CSCC[C@H](NC(=O)[C@H](CCCNC(=N)N)NC(=O)[C@H](Cc1c[nH]c2ccccc12)NC(=O)[C@H](CCC(N)=O)NC(=O)[C@H](Cc1c[nH]c2ccccc12)NC(=O)[C@H](CCCNC(=N)N)NC(=O)[C@H](CCCNC(=N)N)NC(=O)OCC1c2ccccc2-c2ccccc21)C(=O)N[C@@H](CCCCN)C(=O)N[C@@H](CCCCN)C(=O)N[C@@H](CC(C)C)C(=O)O [LFB 20-29 FMOC] (Fmoc-RRWQWRMKKL-OH) | – | 5 (≈ 2.92 µM) | 10 (≈ 5.85 µM) | 140 | 10.3 | 28.2 | –
4 | CSCC[C@H](NC(=O)[C@H](CCCNC(=N)N)NC(=O)[C@H](C)NC(=O)[C@H](CCC(N)=O)NC(=O)[C@H](Cc1c(S(=O)(=O)c2c(C)c(C)c3c(c2C)CCC(C)(C)O3)[nH]c2ccccc12)NC(=O)[C@H](CCCNC(=N)N)NC(=O)[C@H](CCCNC(=N)N)NC(=O)[C@H](CSCNC(C)=O)NC(=O)[C@H](CCCCN)NC(=O)[C@H](Cc1ccccc1)NC(=O)OCC1c2ccccc2-c2ccccc21)C(=O)N[C@@H](CCCCN)C(=O)N[C@@H](CCCCN)C(=O)N[C@@H](CC(C)C)C(=O)NCC(=O)N[C@@H](C)C(=O)O [LFB A8 FMOC PMC] (Fmoc-FKC(Acm)RR[Trp(2-Pmc)]QARMKKLGA-OH) | – | – | – | – | 6.75 | 45.4 | concentration killing Meth A tumor cells ([1]; after 4 hours incubation): 50 µg/mL; concentration killing Meth A tumor cells ([1]; after ½ hour incubation): higher than 100 μg/ml
5 | CSCC[C@H](NC(=O)[C@H](CCCNC(=N)N)NC(=O)[C@H](C)NC(=O)[C@H](CCC(N)=O)NC(=O)[C@H](Cc1c[nH]c2ccccc12)NC(=O)[C@H](CCCNC(=N)N)NC(=O)[C@H](CCCNC(=N)N)NC(=O)[C@H](CSCNC(C)=O)NC(=O)[C@H](CCCCN)NC(=O)[C@H](Cc1ccccc1)NC(=O)OCC1c2ccccc2-c2ccccc21)C(=O)N[C@@H](CCCCN)C(=O)N[C@@H](CCCCN)C(=O)N[C@@H](CC(C)C)C(=O)NCC(=O)N[C@@H](C)C(=O)O [LFB A8 FMOC] (Fmoc-FKC(Acm)RRWQARMKKLGA-OH) | – | 60 (≈ 27.6 µM) | 10 (≈ 4.6 µM) | – | 2.87 | 7.79 | killing of Meth A cells ([1]; 250 μg/ml at ½ hour and 4 hours): killed most of the cells
6 | CSCC[C@H](NC(=O)[C@H](CCCNC(=N)N)NC(=O)[C@H](C)NC(=O)[C@H](CCC(N)=O)NC(=O)[C@H](Cc1c(S(=O)(=O)c2c(C)c(C)c3c(c2C)CCC(C)(C)O3)[nH]c2ccccc12)NC(=O)[C@H](CCCNC(=N)N)NC(=O)[C@H](CCCNC(=N)N)NC(=O)[C@H](CSCNC(C)=O)NC(=O)[C@H](CCCCN)NC(=O)[C@@H](N)Cc1ccccc1)C(=O)N[C@@H](CCCCN)C(=O)N[C@@H](CCCCN)C(=O)N[C@@H](CC(C)C)C(=O)NCC(=O)N[C@@H](C)C(=O)O [LFB A8 PMC] (H-FKC(Acm)RR[Trp(2-Pmc)]QARMKKLGA-OH) | – | 15 (≈ 6.77 µM) | 17.5 (≈ 7.89 µM) | 275 | – | – | –
7 | CSCC[C@H](NC(=O)[C@H](CCCNC(=N)N)NC(=O)[C@H](C)NC(=O)[C@H](CCC(N)=O)NC(=O)[C@H](Cc1c[nH]c2ccccc12)NC(=O)[C@H](CCCNC(=N)N)NC(=O)[C@H](CCCNC(=N)N)NC(=O)[C@H](CSCNC(C)=O)NC(=O)[C@H](CCCCN)NC(=O)[C@@H](N)Cc1ccccc1)C(=O)N[C@@H](CCCCN)C(=O)N[C@@H](CCCCN)C(=O)N[C@@H](CC(C)C)C(=O)NCC(=O)N[C@@H](C)C(=O)O [LFB A8] (H-FKC(Acm)RRWQARMKKLGA-OH; N-terminus assumed) | – | >200 | >200 | 500 | 2.8 | 3.45 | –
8 | CSCC[C@H](NC(=O)[C@H](CCCNC(=N)N)NC(=O)[C@H](Cc1c[nH]c2ccccc12)NC(=O)[C@H](CCC(N)=O)NC(=O)[C@H](Cc1c[nH]c2ccccc12)NC(=O)[C@H](CCCNC(=N)N)NC(=O)[C@H](CCCNC(=N)N)NC(=O)[C@H](CSCNC(C)=O)NC(=O)[C@H](CCCCN)NC(=O)[C@@H](N)Cc1ccccc1)C(=O)N[C@@H](CCCCN)C(=O)N[C@@H](CCCCN)C(=O)N[C@@H](CC(C)C)C(=O)N[C@@H](C)C(=O)N[C@@H](C)C(=O)O [LFB A14] (H-FKC(Acm)RRWQWRMKKLAA-OH) | – | 25 (≈ 12 µM) | 160 (≈ 76.9 µM) | 500 | – | – | –
9 | CSCC[C@H](NC(=O)[C@H](CCCNC(=N)N)NC(=O)[C@H](Cc1c[nH]c2ccccc12)NC(=O)[C@H](CCC(N)=O)NC(=O)[C@H](Cc1c(S(=O)(=O)c2c(C)c(C)c3c(c2C)CCC(C)(C)O3)[nH]c2ccccc12)NC(=O)[C@H](CCCNC(=N)N)NC(=O)[C@H](CCCNC(=N)N)NC(=O)[C@H](CSCNC(C)=O)NC(=O)[C@H](CCCCN)NC(=O)[C@@H](N)Cc1ccccc1)C(=O)N[C@@H](CCCCN)C(=O)N[C@@H](CCCCN)C(=O)N[C@@H](CC(C)C)C(=O)NCC(=O)N[C@@H](C)C(=O)O [LFB PMC6] | – | – | – | 148 | 3.4 | 6 | EC 50 (human red blood cells): >1000 µg/mL; EC50 (human red blood cells): > 429 µM; MIC E. coli ([2]; Table 11): 10 µg/mL (≈ 4.29 µM); MIC S. aureus ([3]; Table 11): 10 µg/mL (≈ 4.29 µM)
10 | H-FKARRWQWRMKKLGA-OH [LFB A3] | – | 25 | 100 | 500 | – | – | –
11 | PAWFKARRWAWRMKK-OH [LFB 14-28 A2,6, 10] | > 438 | – | – | – | – | – | IC50 ([1]; 4 h): > 248 µM
12 | PAWFKARRWAWRMKKL-OH [LFB 14-29 A2,6, 10] | > 469 | – | – | – | – | – | IC50 ([1]; 4 h): > 235 µM
13 | PAWFKARRWAWRMKKLA-OH [LFB 14-30 A2,6, 10, 17] | > 454 | – | – | – | – | – | IC50 ([1]; 4 h): > 227 µM
14 | PAWRKARRWARRMKKLAA-OH [LFB 14-31 A2,6, 10, 17R4, 11] | > 444 | – | – | – | – | – | IC50 [1, 4]: 75.5 µM
